Reference: patent US20100041089A1, “IMPROVED METHOD FOR DETECTING CHEMICAL […]” (priority 2006, published 2010)

Test system: yeast genes (expressed mRNA)
Test: DNA chip measurement of expressed mRNA of yeast genes after culture with a toxic chemical substance
Type: cell-based, Saccharomyces cerevisiae S288C
Conditions: for The level of expressed mRNA in the presence of chemical substance/The level of expressed mRNA in the absence of chemical substance: cultured two hours with substance; for level of expressed mRNA in the presence of chemical substance / level in the absence of chemical substance: cultured two hours with the chemical substance
Summary of the method: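 Fluorescence ratio, treated over untreated, read by chip scanner; ratio of two or more counted significant. Cells: S288C yeast, YPD, 25° C, chemical added at log phase for 2 h at growth-inhibiting, sublethal level. Cy3/Cy5-labeled cDNA from oligo-dT-purified mRNA.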

## Manganese ethylenebis(dithiocarbamate) [(8)]
Yeast gene YNL044W
  The level of expressed mRNA in the presence of chemical substance/The level of expressed mRNA in the absence of chemical substance: 1.8
Yeast gene YNL063W
  level of expressed mRNA in the presence of chemical substance / level in the absence of chemical substance: 1.5
Yeast gene YNL074C
  The level of expressed mRNA in the presence of chemical substance/The level of expressed mRNA in the absence of chemical substance: 0.6
Yeast gene YNL092W
  The level of expressed mRNA in the presence of chemical substance/The level of expressed mRNA in the absence of chemical substance: 0.9
Yeast gene YNL115C
  The level of expressed mRNA in the presence of chemical substance/The level of expressed mRNA in the absence of chemical substance: 0.8
Yeast gene YNL156C
  The level of expressed mRNA in the presence of chemical substance/The level of expressed mRNA in the absence of chemical substance: 1.2
Yeast gene YNL176C
  level of expressed mRNA in the presence of chemical substance / level in the absence of chemical substance: 0.9
Yeast gene YNL194C
  level of expressed mRNA in the presence of chemical substance / level in the absence of chemical substance: 0.9
Yeast gene YNL200C
  level of expressed mRNA in the presence of chemical substance / level in the absence of chemical substance: 0.7
Yeast gene YNL234W
  The level of expressed mRNA in the presence of chemical substance/The level of expressed mRNA in the absence of chemical substance: 1.3
Yeast gene YNL253W
  level of expressed mRNA in the presence of chemical substance / level in the absence of chemical substance: 1.1
Yeast gene YNL276C
  level of expressed mRNA in the presence of chemical substance / level in the absence of chemical substance: 0.7
Yeast gene YNL281W
  The level of expressed mRNA in the presence of chemical substance/The level of expressed mRNA in the absence of chemical substance: 1.2
Yeast gene YNL305C
  The level of expressed mRNA in the presence of chemical substance/The level of expressed mRNA in the absence of chemical substance: 0.7
Yeast gene YNR051C
  level of expressed mRNA in the presence of chemical substance / level in the absence of chemical substance: 0.7
Yeast gene YNR068C
  The level of expressed mRNA in the presence of chemical substance/The level of expressed mRNA in the absence of chemical substance: 1.1
Yeast gene YOL026C
  level of expressed mRNA in the presence of chemical substance / level in the absence of chemical substance: 1.1
Yeast gene YOL032W
  The level of expressed mRNA in the presence of chemical substance/The level of expressed mRNA in the absence of chemical substance: 1.5
Yeast gene YOL036W
  The level of expressed mRNA in the presence of chemical substance/The level of expressed mRNA in the absence of chemical substance: 0.8
Yeast gene YOL047C
  The level of expressed mRNA in the presence of chemical substance/The level of expressed mRNA in the absence of chemical substance: 1.1
Yeast gene YOL071W
  The level of expressed mRNA in the presence of chemical substance/The level of expressed mRNA in the absence of chemical substance: 1.6
Yeast gene YOL082W
  The level of expressed mRNA in the presence of chemical substance/The level of expressed mRNA in the absence of chemical substance: 1.1
Yeast gene YOL083W
  The level of expressed mRNA in the presence of chemical substance/The level of expressed mRNA in the absence of chemical substance: 1.3
Yeast gene YOL117W
  The level of expressed mRNA in the presence of chemical substance/The level of expressed mRNA in the absence of chemical substance: 1.1
Yeast gene YOL131W
  The level of expressed mRNA in the presence of chemical substance/The level of expressed mRNA in the absence of chemical substance: 1.1
Yeast gene YOL150C
  The level of expressed mRNA in the presence of chemical substance/The level of expressed mRNA in the absence of chemical substance: 3.7
Yeast gene YOL162W
  The level of expressed mRNA in the presence of chemical substance/The level of expressed mRNA in the absence of chemical substance: 1.6
Yeast gene YOR019W
  The level of expressed mRNA in the presence of chemical substance/The level of expressed mRNA in the absence of chemical substance: 1.1
Yeast gene YOR022C
  level of expressed mRNA in the presence of chemical substance / level in the absence of chemical substance: 1.2
Yeast gene YOR087W
  level of expressed mRNA in the presence of chemical substance / level in the absence of chemical substance: 0.8
Yeast gene YOR138C
  level of expressed mRNA in the presence of chemical substance / level in the absence of chemical substance: 0.8
Yeast gene YOR197W
  The level of expressed mRNA in the presence of chemical substance/The level of expressed mRNA in the absence of chemical substance: 0.9
Yeast gene YOR253W
  level of expressed mRNA in the presence of chemical substance / level in the absence of chemical substance: 1.2
Yeast gene YOR267C
  level of expressed mRNA in the presence of chemical substance / level in the absence of chemical substance: 0.7
Yeast gene YOR325W
  level of expressed mRNA in the presence of chemical substance / level in the absence of chemical substance: 0.9
Yeast gene YPL005W
  level of expressed mRNA in the presence of chemical substance / level in the absence of chemical substance: 1.0
Yeast gene YPL087W
  The level of expressed mRNA in the presence of chemical substance/The level of expressed mRNA in the absence of chemical substance: 1.0
Yeast gene YPL150W
  level of expressed mRNA in the presence of chemical substance / level in the absence of chemical substance: 1.1
Yeast gene YPL152W
  level of expressed mRNA in the presence of chemical substance / level in the absence of chemical substance: 1.1
Yeast gene YPL168W
  level of expressed mRNA in the presence of chemical substance / level in the absence of chemical substance: 1.2
Yeast gene YPL180W
  level of expressed mRNA in the presence of chemical substance / level in the absence of chemical substance: 1.0
Yeast gene YPL188W
  level of expressed mRNA in the presence of chemical substance / level in the absence of chemical substance: 1.6
Yeast gene YPL196W
  The level of expressed mRNA in the presence of chemical substance/The level of expressed mRNA in the absence of chemical substance: 1.2
Yeast gene YPL206C
  The level of expressed mRNA in the presence of chemical substance/The level of expressed mRNA in the absence of chemical substance: 1.0
Yeast gene YPL221W
  level of expressed mRNA in the presence of chemical substance / level in the absence of chemical substance: 0.9
Yeast gene YPL222W
  The level of expressed mRNA in the presence of chemical substance/The level of expressed mRNA in the absence of chemical substance: 0.7
Yeast gene YPL225W
  level of expressed mRNA in the presence of chemical substance / level in the absence of chemical substance: 1.7
Yeast gene YPR023C
  The level of expressed mRNA in the presence of chemical substance/The level of expressed mRNA in the absence of chemical substance: 0.9
Yeast gene YPR049C
  level of expressed mRNA in the presence of chemical substance / level in the absence of chemical substance: 1.1
Yeast gene YPR146C
  level of expressed mRNA in the presence of chemical substance / level in the absence of chemical substance: 0.8
Yeast gene YPR148C
  level of expressed mRNA in the presence of chemical substance / level in the absence of chemical substance: 1.5
Yeast gene YPR151C
  The level of expressed mRNA in the presence of chemical substance/The level of expressed mRNA in the absence of chemical substance: 1.4
Yeast gene YPR172W
  level of expressed mRNA in the presence of chemical substance / level in the absence of chemical substance: 1.0
